For assay [1], the system named is CHEAL (common lambsquarters). The assay is described as follows: Pre-emergence herbicidal activity, warm season. The format is in vivo, Chenopodium album. The settings on record: GR80 = lowest tested rate (300, 100, 30, 10 g/ha) with 80% or greater inhibition; approx. 14 days after treating; 30/21° C. A digest of the protocol: (§1)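 GR80 values derive from percent inhibition relative to untreated plants, read roughly 14 days after sowing and pre-emergence soil-surface treatment (compound in 50:50 acetone/water; rates typically 10, 30, 100, 300 g/ha). Warm-season weeds grew at 30/21° C day/night, cool-season ones at 18/13° C; an asterisk marks activity without reaching 80% at the highest rate.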

For assay [2], the system named is ECHCG (barnyardgrass). Briefly: Pre-emergence herbicidal activity, warm season. The settings on record: for Pre-emergence activity (GR80) ECHCG: GR80 = lowest tested rate (300, 100, 30, 10 g/ha) with 80% or greater inhibition, approx. 14 days after treating, 30/21° C. The format is in vivo, Echinochloa crus-galli. A digest of the protocol: (§2)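 Seeds sown in sterilised fertilised topsoil received surface-applied compound in 50:50 acetone/water, typically at 300, 100, 30 and 10 g/ha, then greenhouse-grown at 30/21° C (warm-season species) or 18/13° C (cool-season species). Percent inhibition versus untreated plants was scored at about 14 days, giving GR80; an asterisk marks activity short of 80% at the top rate.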

In assay [3] the test system is SORHA (johnsongrass (seedling)). The assay is described as follows: Pre-emergence herbicidal activity, warm season. Particulars: for Pre-emergence activity (GR80) SORHA: GR80 = lowest tested rate (300, 100, 30, 10 g/ha) with 80% or greater inhibition, approx. 14 days after treating, 30/21° C. The format is in vivo, Sorghum halepense. A digest of the protocol:
as §2

For assay [4], the system named is SASKR (russian thistle). Briefly: Pre-emergence herbicidal activity, cool season. The format is in vivo, Salsola kali. The settings on record: lowest tested rate with 80% or greater inhibition; rates 300, 100, 30, 10 g/ha; about 14 days. The method, boiled down:
as §1

Assay [5] has as its system SETVI (green foxtail). Briefly: Pre-emergence herbicidal activity, cool season. The format is in vivo, Setaria viridis. The settings on record: GR80 = lowest tested rate (300, 100, 30, 10 g/ha) with 80% or greater inhibition; approx. 14 days after treating; 18/13° C. The method, boiled down:
as §1

For assay [6], the system named is SOLNI (black nightshade). The assay is described as follows: Pre-plant incorporated (PPI) herbicidal activity, warm season. The format is in vivo, Solanum nigrum. Particulars: for PPI activity (GR80) SOLNI: pre-plant incorporated, GR80 = lowest tested rate with 80% or greater inhibition, approx. 14 days after treating, 30/21° C. The procedure: (§3) In another set of tests, the pre-plant incorporated (PPI) activity of compounds of this invention was evaluated on the same species as for the pre-emergence tests described above. In the PPI tests the following procedure, designed to simulate PPI application, was used.
(§4) A pre-prepared topsoil mixture (described above) was placed in a pot and compacted to a depth of 1.0 to 1.25 cm from the top of the pot. Seeds of each of several monocotyledonous and dicotyledonous annual plant species were placed on top of the soil. A sufficient quantity of soil to cover the seeds and level fill the pot was weighed into an open container. A known amount of the test compound was dissolved or suspended in an organic solvent and applied by spraying to this cover soil. The cover soil was thoroughly mixed to distribute the test compound throughout the cover soil, and was then applied as a cover layer over the seeds. Untreated soil was used as a cover layer for control pots. After treatment the plants were placed in a greenhouse where they received 0.64 cm of overhead irrigation. All subsequent watering consisted of a light overhead mist and/or subirrigation as needed for germination and growth. Tables 9 and 10 below relate to warm season plant species which were placed after pre-emergence treatment in a greenhouse with a 30/21° C. day/night temperature regime. Tables 11 and 12 below relates to cool season plant species placed after pre-emergence treatment in a greenhouse or growth chamber with an 18/13° C. day/night temperature regime. Only the compounds of Examples 1, 6, 8, 11, 13 and 15-20 were included in PPI tests.
(§5) Approximately 14 days after planting and treating, the plants were observed and herbicidal efficacy recorded as percent inhibition by comparison with untreated plants.

Assay [7] relates to DATST (jimsonweed). The description is as above. The format is in vivo, Datura stramonium. The settings on record: for PPI activity (GR80) DATST: pre-plant incorporated, GR80 = lowest tested rate with 80% or greater inhibition, approx. 14 days after treating, 30/21° C. The procedure:
as §3, §4, §5

Assay [8] deals with LOLMG (annual ryegrass). The assay is described as follows: Post-emergence herbicidal activity, cool season. The format is in vivo, Lolium multiflorum. Particulars: abraded plants sprayed at 300, 100, 30 and 10 g/ha; about 14 days after treatment. As to the method:
In another set of tests, the post-emergence activity of compounds of this invention was evaluated on the cool season species listed above. The following procedure was used.
A pre-prepared topsoil mixture (described above) was placed in a pot and compacted to a depth of 1.0 to 1.25 cm from the top of the pot. Seeds of each of several monocotyledonous and dicotyledonous annual plant species were placed on top of the soil. The seeds were covered with a mixture of 50% topsoil and 50% Rediearth™ in sufficient quantity to level-fill the pots. The pots were then placed on a greenhouse bench and subirrigated as needed.
When plants growing from the seeds had emerged and reached a suitable growth stage for post-emergence treatment, typically 9 to 14 days after planting, above-ground parts of the plants were subjected to a pre-treatment involving abrasion to create greater opportunity for foliar uptake of subsequently applied compounds. Abrasion was performed using garnet 200w particles applied with a Sears Craftsman hand-held sandblaster operated at approximately 850 kPa (50 psig) pressure.
A known amount of each test compound dissolved or suspended in an appropriate organic solvent was diluted with a 50:50 mix of acetone and water and applied to the plants by spraying with a standard spray nozzle in a spray volume of […] at a spray pressure of 511 kPa (30 psig). Only the compounds of Examples 1, 8-15 and 17-22 were included in post-emergence tests. Application rates for these compounds were 300, 100, 30 and 10 g/ha. Control plants were abraded but not sprayed.
After treatment the plants were placed in a greenhouse with an 18/13° C. day/night temperature regime and were subsequently watered as needed for growth. Approximately 14 days after treatment, the plants were observed and herbicidal efficacy recorded as percent inhibition by comparison with control plants. GR80 values were assigned for each compound as described above for the pre-emergence tests.

Each structure is given as a SMILES string.

On to `CCN(CC)C(=O)n1cnc(S(=O)(=O)C(F)(F)C(=O)c2ccccc2)n1` [Example 6], for which the “Pre-emergence activity (GR80) CHEAL” value in assay [1] is 300 g/ha. For the same compound, in assay [2], the “Pre-emergence activity (GR80) ECHCG” value is on record as “* (activity observed, at least at highest rate, but <80% inhibition)”. In addition, the “Pre-emergence activity (GR80) SORHA” value in assay [3] is 100 g/ha. Further, in assay [4], the “Pre-emergence activity GR80, SASKR” value is “[empty]”. Moreover, the “Pre-emergence activity (GR80) SETVI” value in assay [5] turned out to be 300 g/ha. Besides, the “PPI activity (GR80) SOLNI” value in assay [6] is reported as 100 g/ha. The “PPI activity (GR80) DATST” value in assay [7] turned out to be 300 g/ha.
Regarding `CCN(CC)C(=O)n1cnc(S(=O)(=O)C(F)F)n1` [Example 15, 1-(N,N-diethylcarbamoyl)-3-(difluoromethylsulfonyl)-1,2,4-triazole], the inhibition at 10 g/ha was determined as 0% in assay [2] (Echinochloa crus-galli, pre-emergence application, 10 g/ha, read-out: Percent inhibition, weed ECHCG); 0% in assay [3] (Sorghum halepense, pre-emergence application, 10 g/ha, read-out: Percent inhibition, weed SORHA); 0% in assay [6] (Solanum nigrum, PPI application, 10 g/ha, read-out: Percent inhibition SOLNI); 0% in assay [7] (Datura stramonium, PPI application, 10 g/ha, read-out: Percent inhibition DATST). Besides, the inhibition at 30 g/ha in assay [2] (Echinochloa crus-galli, pre-emergence application, 30 g/ha, read-out: Percent inhibition, weed ECHCG) worked out at 0%; in assay [3] (Sorghum halepense, pre-emergence application, 30 g/ha, read-out: Percent inhibition, weed SORHA) it was 0%; in assay [6] (Solanum nigrum, PPI application, 30 g/ha, read-out: Percent inhibition SOLNI), 0%; in assay [7] (Datura stramonium, PPI application, 30 g/ha, read-out: Percent inhibition DATST) it was 0%. For the same compound, the inhibition at 100 g/ha worked out at 20% in assay [2] (Echinochloa crus-galli, pre-emergence application, 100 g/ha, read-out: Percent inhibition, weed ECHCG); 30% in assay [3] (Sorghum halepense, pre-emergence application, 100 g/ha, read-out: Percent inhibition, weed SORHA); 20% in assay [6] (Solanum nigrum, PPI application, 100 g/ha, read-out: Percent inhibition SOLNI); 0% in assay [7] (Datura stramonium, PPI application, 100 g/ha, read-out: Percent inhibition DATST). The inhibition at 300 g/ha in assay [2] (Echinochloa crus-galli, pre-emergence application, 300 g/ha, read-out: Percent inhibition, weed ECHCG) came to 60%; in assay [3] (Sorghum halepense, pre-emergence application, 300 g/ha, read-out: Percent inhibition, weed SORHA), 95%; in assay [6] (Solanum nigrum, PPI application, 300 g/ha, read-out: Percent inhibition SOLNI) it was 100%; in assay [7] (Datura stramonium, PPI application, 300 g/ha, read-out: Percent inhibition DATST), 65%. The inhibition at 900 g/ha in assay [2] (Echinochloa crus-galli, pre-emergence application, 900 g/ha, read-out: Percent inhibition, weed ECHCG) was determined as 70%; in assay [3] (Sorghum halepense, pre-emergence application, 900 g/ha, read-out: Percent inhibition, weed SORHA) it was 100%; in assay [6] (Solanum nigrum, PPI application, 900 g/ha, read-out: Percent inhibition SOLNI) it was 99%; in assay [7] (Datura stramonium, PPI application, 900 g/ha, read-out: Percent inhibition DATST), 90%. Besides, the “Pre-emergence activity (GR80) ECHCG” value in assay [2] is given as 100 g/ha. Also, in assay [3], the “Pre-emergence activity (GR80) SORHA” value is reported as 100 g/ha. The “PPI activity (GR80) SOLNI” value in assay [6] is given as 100 g/ha. In assay [7], the “PPI activity (GR80) DATST” value is given as 300 g/ha. Further, the “Post-emergence activity GR80, LOLMG” value in assay [8] is “[empty]”.
As for `CCN(CC)C(=O)n1cnc(S(=O)(=O)C(F)(F)C(F)F)n1` [Example 16], the “Pre-emergence activity (GR80) CHEAL” value in assay [1] is reported as 300 g/ha. Moreover, in assay [2], the “Pre-emergence activity (GR80) ECHCG” value is on record as 100 g/ha. Besides, the “Pre-emergence activity (GR80) SORHA” value in assay [3] is recorded as 100 g/ha. Further, the “Pre-emergence activity GR80, SASKR” value in assay [4] is on record as 100 g/ha. In assay [5], the “Pre-emergence activity (GR80) SETVI” value came out at 300 g/ha. Moreover, the “Percent inhibition SOLNI” value was 100% in assay [6] (PPI application, 10 g/ha); 100% in assay [6] (PPI application, 100 g/ha); 95% in assay [6] (PPI application, 300 g/ha); 100% in assay [6] (PPI application, 900 g/ha). For the same compound, in assay [6], the “PPI activity (GR80) SOLNI” value was found to be 30 g/ha. The “Percent inhibition DATST” value in assay [7] (PPI application, 10 g/ha) is on record as 0%; in assay [7] (PPI application, 30 g/ha) it was 0%; in assay [7] (PPI application, 100 g/ha), 20%; in assay [7] (PPI application, 300 g/ha), 70%; in assay [7] (PPI application, 900 g/ha) it was 100%. Further, the “PPI activity (GR80) DATST” value in assay [7] was found to be 100 g/ha.

These data come from patent US6461997B1, “Triazole sulfones having herbicidal activity” (Monsanto Technology LLC, priority 1999, dated 2002).
